Here are results for 11 molecules from ChEMBL document CHEMBL1138846, “Synthesis of C2-C3'N-linked macrocyclic taxoids. Novel docetaxel analogues with high tubulin activity” (J Med Chem, 2004).

Structures are written as SMILES. Calls of active or inactive are those of the source. No cut-off for these calls is given here.

A short description of assay [1]: Ratio of inhibitory concentration of compound against microtubule disassembly to that of inhibitory concentration of paclitaxel. The class given is functional.
For the next assay, the system named is MCF7. In words: Concentration required for inhibition of 50% human breast MCF 7 cell line proliferation after 72 hr of incubation. The class given is functional, cell-based. The note with it: MCF7, 72 h.
The test system of another assay is KB. Description: Concentration required for inhibition of 50% human […] KB cell line proliferation after 72 hr of incubation. The class given is functional, cell-based.
For another assay, the system named is HCT-116. In words: Concentration required for inhibition of 50% human colon HCT 116 cell line proliferation after 72 hr of incubation. The class given is functional, cell-based. The note with it: HCT-116, 72 h.
A short description of assay [2]: Ratio of inhibitory concentration of compound against microtubule disassembly to that of inhibitory concentration of paclitaxel; Inactive. In kind it is functional.
Assay [3] can be described thus: Concentration required to inhibit 50% of rate of microtubule disassembly. In kind it is functional.

As to `CC(=O)O[C@@]12CO[C@@H]1C[C@H](O)[C@@]1(C)C(=O)[C@H](O)C3=C(C)[C@@H]4C[C@@](O)([C@@H](OC(=O)c5cccc(c5)C/C=C/CCCCC(=O)N[C@@H](c5ccccc5)[C@@H](O)C(=O)O4)C12)C3(C)C` (stereo partly drawn), the Ratio in assay [1] worked out at 1. Moreover, the IC50 in the assay with MCF7 stood at 350 nM; with KB, 70 nM; in the assay with HCT-116, 700 nM.

With `CC(=O)O[C@@]12CO[C@@H]1C[C@H](O)[C@@]1(C)C(=O)[C@H](O)C3=C(C)[C@@H]4C[C@@](O)([C@@H](OC(=O)c5ccccc5C/C=C/CCCCC(=O)N[C@@H](c5ccccc5)[C@@H](O)C(=O)O4)C12)C3(C)C` (stereo partly drawn), the Ratio in assay [1] was determined as 6. For the same molecule, the IC50 was 2100 nM in the assay with MCF7, 700 nM in the assay on KB and 2400 nM with HCT-116.

Take `CC(=O)O[C@@]12CO[C@@H]1C[C@H](O)[C@@]1(C)C(=O)[C@H](O)C3=C(C)[C@@H]4C[C@@](O)([C@@H](OC(=O)CCCC/C=C\CCCCC(=O)N[C@@H](c5ccccc5)[C@@H](O)C(=O)O4)C12)C3(C)C` (stereo partly drawn): the Ratio in assay [1] was found to be 7.3. For the same molecule, the values for the IC50 with MCF7, with KB and in the assay with HCT-116 were over 10000 nM, 8000 nM and over 10000 nM, respectively.

As to `C=CCCCCC(=O)N[C@@H](c1ccccc1)[C@@H](O)C(=O)O[C@H]1C[C@@]2(O)[C@@H](OC(=O)c3cccc(CC=C)c3)C3[C@](C)(C(=O)[C@H](O)C(=C1C)C2(C)C)[C@@H](O)C[C@H]1OC[C@@]31OC(C)=O` (stereo partly drawn), the Ratio in assay [1] worked out at 1. In the assay on KB, the midpoint of inhibition, the IC50, lay at 10 nM.

As for `CC(=O)O[C@@]12CO[C@@H]1C[C@H](O)[C@@]1(C)C(=O)[C@H](O)C3=C(C)[C@@H]4C[C@@](O)([C@@H](OC(=O)c5cccc(c5)C/C=C\CCCCC(=O)N[C@@H](c5ccccc5)[C@@H](O)C(=O)O4)C12)C3(C)C` (stereo partly drawn), in assay [1], the Ratio was found to be 1.4. The figures for the IC50 in the assay on MCF7, in the assay with KB and with HCT-116 were over 10000 nM, 200 nM and 8000 nM, respectively.

Regarding `C=CCCCCC(=O)N[C@@H](c1ccccc1)[C@@H](O)C(=O)O[C@H]1C[C@@]2(O)[C@@H](OC(=O)c3ccc(CC=C)cc3)C3[C@](C)(C(=O)[C@H](O)C(=C1C)C2(C)C)[C@@H](O)C[C@H]1OC[C@@]31OC(C)=O` (stereo partly drawn), the Ratio result in assay [2] is “inactive”. The IC50 in the assay on KB is 40 nM.

Consider `CC(=O)O[C@@]12CO[C@@H]1C[C@H](O)[C@@]1(C)C(=O)[C@H](O)C3=C(C)[C@@H]4C[C@@](O)([C@@H](OC(=O)c5ccc(cc5)C/C=C/CCCC(=O)N[C@@H](c5ccccc5)[C@@H](O)C(=O)O4)C12)C3(C)C` (stereo partly drawn), for which the Ratio entry in assay [2] was “inactive”. The molecule further yielded an IC50 in the assay on KB of 1600 nM.

Take `CC(=O)O[C@@]12CO[C@@H]1C[C@H](O)[C@@]1(C)C(=O)[C@H](O)C3=C(C)[C@@H](OC(=O)[C@H](O)[C@@H](NC(=O)OC(C)(C)C)c4ccccc4)C[C@@](O)([C@@H](OC(=O)c4ccccc4)[C@H]21)C3(C)C` [DOCETAXEL]: the Ratio in assay [1] was determined as 0.5. In addition, the IC50 in the assay with MCF7 is 1 nM; in the assay with KB it was 0.3 nM; with HCT-116, 2.2 nM.

Turning to `C=CCCCCC(=O)N[C@@H](c1ccccc1)[C@@H](O)C(=O)O[C@H]1C[C@@]2(O)[C@@H](OC(=O)c3ccccc3CC=C)C3[C@](C)(C(=O)[C@H](O)C(=C1C)C2(C)C)[C@@H](O)C[C@H]1OC[C@@]31OC(C)=O` (stereo partly drawn), the Ratio in assay [1] came to 1.2. The IC50 worked out at 9 nM with MCF7, 3.2 nM in the assay with KB and 10 nM in the assay with HCT-116.

Regarding `CC(=O)O[C@@]12CO[C@@H]1C[C@H](O)[C@@]1(C)C(=O)[C@H](O)C3=C(C)[C@@H]4C[C@@](O)([C@@H](OC(=O)c5ccc(cc5)C/C=C\CCCCC(=O)N[C@@H](c5ccccc5)[C@@H](O)C(=O)O4)C12)C3(C)C` (stereo partly drawn), the Ratio result in assay [2] was “inactive”. In the assay with KB, this molecule displayed an IC50 of 280 nM.

With `CC(=O)O[C@H]1C(=O)[C@@]2(C)[C@H]([C@H](OC(=O)c3ccccc3)[C@]3(O)C[C@H](OC(=O)[C@H](O)[C@@H](NC(=O)c4ccccc4)c4ccccc4)C(C)=C1C3(C)C)[C@]1(OC(C)=O)CO[C@@H]1C[C@@H]2O` [PACLITAXEL], the IC50 in assay [3] was determined as 1000 nM.

A word on the IC50: it is the concentration at which inhibition is half-maximal. Read a high IC50 as lower potency.
